The values below come from publication PMC8326471, “Synthesis and biological evaluation of new pyrazolebenzene-sulphonamides as potential anticancer agents and hCA I and II inhibitors” (Turkish Journal of Chemistry, 2021).

Each structure is given as a SMILES string.

For one series, the target named is hCA I (Homo sapiens, UniProt P00915). The experiment in a line: Carbonic anhydrase enzyme assay (esterase activity), hCA I. To be noted: for Ki: Lineweaver-Burk plot; for IC50: esterase activity, p-nitrophenyl acetate. It counts as biochemical. From the text:
(§1) Human CA isoforms (hCAI and hCAII) were purified by the sepharose - 4B – L - tyrosine sulfanilamide affinity segregation method as reported. […] Inhibitory effects of the compounds were investigated by measuring the esterase activity according to Verpoorte et al. as described in previous studies [61 – 63].
(§2) Vmax, maximal velocity; VImax, maximal velocity of inhibitor; I, inhibitor; Ki, the inhibitor constant.

Series [1] deals with HSC-3 oral squamous cell carcinoma cells. The experiment in a line: Cytotoxicity assay (MTT), HSC-3. It counts as cell-based. To be noted: Homo sapiens, tumor cell line, 48 h. As to the method: (§3) The cytotoxicity of the compounds 4a - 4j were assayed towards human tumor cell lines [gingival carcinoma (Ca9–22), oral squamous cell carcinoma (HSC-2)] and human normal oral cells [gingival fibroblasts (HGF), and periodontal ligament fibroblasts (HPLF)] as described [42, 54 – 56]. In brief, all cells were cultured in Dulbecco’s modified eagle’s medium (DMEM) supplemented with 10% fetal bovine serum (FBS). The following concentrations of the compounds in dimethylsulfoxide (DMSO) were added to the medium and incubated at 37 ° C for 48 h: 4a - 4j ([…]), melphalan (3.12, 6.25, 12.5, 25. 50, 100, 200 and […]) and 5-FU ([…]). The media that contained the same concentration of DMSO ([…], 0.03125, 0.0625, 0.125, 0.25, 0.5 or 1%) were used as controls since DMSO above 0.25% is cytotoxic. The viable cell numbers were determined by the 3-(4,5-dimethylthiazol-2-yl)-2,5-diphenyltetrazolium bromide (MTT) assay. The CC50 values were determined from dose-response curves.
(§4) Cytotoxicity’s of the compounds 4a - 4j were evaluated towards Ca9–22, HSC-2, HSC-3, and HSC-4 human oral squamous cell carcinoma cell lines as tumor cell lines and HGF, HPLF, and HPC human normal oral cells as nontumor cells (Table 1) according to the procedure in the literature [42, 54 – 56]. 5-Fluorouracil (5-FU) was used as a reference anticancer drug.

Series [2] has as its system human oral squamous cell carcinoma cell lines (Ca9-22, HSC-2, HSC-3, HSC-4). Nature of the series: Cytotoxicity assay, all tumor cell lines (mean, TS1, PSE1). As to conditions: mean of Ca9-22, HSC-2, HSC-3, HSC-4, read-out: Tumor cell lines CC50 mean (B). It counts as cell-based. The procedure:
as §3, §4
The tumor selectivity (TS1 and TS2) of each compound was calculated as described in previously reported literature procedures and these figures are presented in Table 1. Based on the TS1 values, 4f and 4g which have 2,5 and 2,4-dimethoxy substituents had the highest TS1 values in a series with 22.4 and 22.2, respectively. On the other hand, the 3,4,5-trimethoxy substituted compound 4i (TS1: 19.6) had the […] TS1 value. […] As expected, they were in accordance with the literature findings [16 – 18]. The second calculation (TS2) considered the differences of sensitivity between the malignant (Ca9–22) and non-malignant (HGF) cells derived from the same tissue (gingiva). According to TS2 values obtained, 4i (3,4,5-trimethoxy) had the highest TS2 value of 43.
The desired properties for a lead compound are being both markedly cytotoxic and selectively toxic for tumors. PSE1 reflects general cytotoxicity and selectivity potency of the compound towards all cells used, whereas PSE2 seems more specified since it was considered for the same origin cells. When the compounds tested towards OSCC lines were considered in terms of PSE2 values of the compounds. The best poly-methoxylated compounds were 4i (with 3,4,5-trimethoxy, PSE2 = 461.5) ˃ 4f (with 2,5-dimethoxy, PSE2 = 425.1) ˃ 4g (with 2,4-dimethoxy, PSE2 = 405.4) while the best mono-methoxylated derivative was 4b (with 4-methoxy, PSE2 = 205).

Series [3] in a line: Cytotoxicity assay, all non-tumor cells (mean). It counts as cell-based. To be noted: human, normal oral cells HGF, HPLF and HPC (mean of the three), read-out: Non-tumor cell lines CC50 mean (D). The procedure:
as §3, §4

Series [4] in a line: Cytotoxicity assay (MTT), HPC normal cells. It counts as cell-based. To be noted: human, HPC normal oral cells, non-tumor cells. As to the method: as §3, §4
The nature of series [5]: Cytotoxicity assay (MTT), HGF normal cells. It counts as cell-based. As to conditions: human, HGF gingival fibroblasts (normal oral cells), non-tumor cells. As to the method: as §3, §4
Series [6] concerns gingival carcinoma (Ca9-22) cells. The experiment in a line: Cytotoxicity assay (MTT), Ca9-22. It counts as cell-based, human. As to conditions: for CC50: Homo sapiens, Ca9-22, tumor cell line, 48 h, MTT; for times of potency compared to 5-FU, Ca9-22: cytotoxicity relative to 5-FU. As to the method: as §3, §4
A short description of series [7]: Cytotoxicity assay (MTT), HPLF normal cells. It counts as cell-based. As to conditions: human, HPLF periodontal ligament fibroblasts (normal oral cells), non-tumor cells. The procedure:
as §3, §4

Series [8] concerns HSC-4 oral squamous cell carcinoma cells. Nature of the series: Cytotoxicity assay (MTT), HSC-4. It counts as cell-based. To be noted: Homo sapiens, tumor cell line, 48 h. As to the method:
as §3, §4

Another series addresses hCA II (Homo sapiens, UniProt P00918). Nature of the series: Carbonic anhydrase enzyme assay (esterase activity), hCA II. It counts as biochemical. To be noted: for Ki: Lineweaver-Burk plot; for IC50: esterase activity, p-nitrophenyl acetate.
Text: as §1, §2

The subject of series [9] is oral squamous cell carcinoma (HSC-2) cells. The experiment in a line: Cytotoxicity assay (MTT), HSC-2. To be noted: for CC50: Homo sapiens, HSC-2, tumor cell line, 48 h, MTT; for times of potency compared to 5-FU, HSC-2: cytotoxicity relative to 5-FU. It counts as cell-based, human. The procedure:
as §3, §4

Chain of hCA I (P00915 whole entry, canonical isoform): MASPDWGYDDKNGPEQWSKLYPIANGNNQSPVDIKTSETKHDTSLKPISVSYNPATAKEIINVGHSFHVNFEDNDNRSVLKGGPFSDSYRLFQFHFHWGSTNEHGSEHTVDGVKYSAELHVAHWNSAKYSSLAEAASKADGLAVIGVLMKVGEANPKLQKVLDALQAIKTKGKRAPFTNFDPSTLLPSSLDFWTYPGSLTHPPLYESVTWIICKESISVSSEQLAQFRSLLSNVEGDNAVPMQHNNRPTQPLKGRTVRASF

The compound `COc1ccccc1C1=NN(c2ccc(S(N)(=O)=O)cc2)C(c2ccc3c(c2)OCO3)C1` (centres unmarked) [4d, 4-[5-(1,3-Benzodioxol-5-yl)-3-(2-methoxyphenyl)-4,5-dihydro-1H-pyrazol-1-yl]benzenesulphonamide] came in with a melting point of 183 to 185 °C. On hCA I, the Ki turned out to be 28.5 ± 1.6 µM and the IC50 is 12.8 µM. The compound also had a CC50 in series [1] of 12.4 µM. The CC50 in series [2] stood at 14.6 µM. Further, the CC50 at 48 h in series [3] is 37.8 µM. Moreover, half-maximal cytotoxicity in series [4] (CC50 at 48 h) was put at 37 µM. The compound further had a CC50 at 48 h in series [5] of 36.9 µM. In series [6], half-maximal cytotoxicity (CC50) was put at 13.8 µM and the “times of potency compared to 5-FU, Ca9-22” value amounted to 1.6. This compound registered a CC50 at 48 h in series [7] of 39.7 µM. In [8], it took 14.9 µM to reach half-maximal cytotoxicity (CC50). On hCA II, this compound returned a Ki of 8.9 ± 1.9 µM and an IC50 of 10.7 µM. Besides, in series [9], the CC50 turned out to be 17.1 µM and the “times of potency compared to 5-FU, HSC-2” value is 15.3.

As for `COc1cccc(C2=NN(c3ccc(S(N)(=O)=O)cc3)C(c3ccc4c(c3)OCO4)C2)c1` (centres unmarked) [4c, 4-[5-(1,3-Benzodioxol-5-yl)-3-(3-methoxyphenyl)-4,5-dihydro-1H-pyrazol-1-yl]benzenesulphonamide], the melting point was in the range of 184 to 186 °C. At hCA I, this compound had a Ki of 21.5 ± 1.5 µM and a concentration for half-maximal inhibition (IC50) of 6.6 µM. In series [1], this compound had a CC50 of 13.9 µM. Further, the half-maximal cytotoxic concentration (CC50) in series [2] is 17.4 µM. For the same compound, the 50% cytotoxic concentration (CC50) at 48 h in series [3] was found to be 119 µM. For the same compound, the CC50 at 48 h in series [4] came to 140 µM. Moreover, the midpoint of cytotoxicity in [5], the CC50 at 48 h, lay at 38.2 µM. Also, in [6], the midpoint of cytotoxicity, the CC50, lay at 19.5 µM. This compound also came in with a CC50 at 48 h in series [7] of 178 µM. The compound further yielded a CC50 in series [8] of 18 µM. On hCA II, this compound came in with a Ki of 6.9 ± 1.5 µM and an IC50 of 9.2 µM. In addition, in series [9], the CC50 was found to be 18.3 µM and the “times of potency compared to 5-FU, HSC-2” value is listed as 14.3.

Compound `COc1ccc(C2=NN(c3ccc(S(N)(=O)=O)cc3)C(c3ccc4c(c3)OCO4)C2)cc1` (centres unmarked) [4b, 4-[5-(1,3-Benzodioxol-5-yl)-3-(4-methoxyphenyl)-4,5-dihydro-1H-pyrazol-1-yl]benzenesulphonamide] registered a melting point of 171 to 173 °C. For the same compound, on hCA I, the Ki was 31.9 ± 1.9 µM and the IC50 was 11.3 µM. The CC50 in series [1] was found to be 16.2 µM. In addition, the CC50 in series [2] came to 16.6 µM. Moreover, the CC50 at 48 h in [3] was determined as 300 µM. Moreover, the midpoint of cytotoxicity in series [4], the CC50 at 48 h, lay at 98.7 µM. The same compound came in with a half-maximal cytotoxic concentration (CC50) at 48 h in series [5] of 400 µM. Besides, in series [6], the midpoint of cytotoxicity, the CC50, lay at 14 µM and the “times of potency compared to 5-FU, Ca9-22” value is on record as 1.6. This compound gave a CC50 at 48 h in series [7] of 400 µM. The same compound displayed a CC50 in series [8] of 18.2 µM. On hCA II, this compound gave a Ki of 11.5 ± 4.6 µM and an IC50 of 16.3 µM. Further, in series [9], the CC50 is 18 µM and the “times of potency compared to 5-FU, HSC-2” value is 14.5.
